Measurements taken from ChEMBL document CHEMBL3232724, “Decreasing acidity in a series of aldose reductase inhibitors: 2-Fluoro-4-(1H-pyrrol-1-yl)phenol as a scaffold for improved membrane permeation” (Bioorg Med Chem, 2014).

What was measured:
[1] = molecular target: Aldo-keto reductase family 1 member B1 (Rattus norvegicus) (UniProt P07943); assay: Inhibition of Fischer-344 rat lens ALR2 using D, L-glyceraldehyde as substrate at 100 uM by spectrophotometry; format: tissue-based; details: Lens of camera-type eye
[2] = molecular target: Aldo-keto reductase family 1 member A1 (Rattus norvegicus, UniProt P51635); assay: Inhibition of Fischer-344 rat kidney ALR1 using D-glucuronate as substrate by spectrophotometry
Chain of Aldo-keto reductase family 1 member A1 (P51635 whole entry, looked up): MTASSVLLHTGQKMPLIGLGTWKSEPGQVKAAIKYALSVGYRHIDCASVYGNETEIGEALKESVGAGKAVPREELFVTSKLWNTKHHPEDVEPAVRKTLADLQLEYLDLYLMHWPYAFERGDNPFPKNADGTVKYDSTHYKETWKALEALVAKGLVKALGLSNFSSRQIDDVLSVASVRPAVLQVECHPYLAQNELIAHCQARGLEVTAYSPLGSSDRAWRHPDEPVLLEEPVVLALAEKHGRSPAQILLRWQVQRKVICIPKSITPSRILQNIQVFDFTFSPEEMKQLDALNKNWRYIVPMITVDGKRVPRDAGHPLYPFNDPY

[3] = molecular target: Aldo-keto reductase family 1 member B1 (Rattus norvegicus, UniProt P07943); assay: Inhibition of Fischer-344 rat lens ALR2 using D, L-glyceraldehyde as substrate by spectrophotometry; format: tissue-based, Lens of camera-type eye
Rattus norvegicus = organism: Rattus norvegicus; assay: Selectivity index, ratio of IC50 for Fischer-344 rat kidney ALR1 to IC50 for Fischer-344 rat lens ALR2; format: tissue-based; details: Lens of camera-type eye
Jejunum [4] = details: rat
[5] = Octanol-water distribution coefficient, log D of the compound at pH 7.4 by shake flask method; format: physicochemical
[6] = Octanol-water distribution coefficient, log D of the compound at pH 12 by shake flask method; format: physicochemical
[7] = Octanol-water distribution coefficient, log D of the compound at pH 8.5 by shake flask method; format: physicochemical
[8] = Octanol-water distribution coefficient, log D of the compound at pH 9.2 by shake flask method; format: physicochemical
[9] = Inhibition of glucose-induced sorbitol accumulation in Wistar rat lens at 10 uM after 3 hrs by fluorescence assay (reference value: 755.27 +/- 19.7 nmol/g); format: functional, Lens of camera-type eye
[10] = Inhibition of glucose-induced sorbitol accumulation in Wistar rat lens at 50 uM after 3 hrs by fluorescence assay (reference value: 755.27 +/- 19.7 nmol/g); format: functional, Lens of camera-type eye
[11] = Octanol-water distribution coefficient, log D of the compound at pH 8.25 by shake flask method; format: physicochemical
[12] = Octanol-water distribution coefficient, log D of the compound at pH 7.8 by shake flask method; format: physicochemical
[13] = Octanol-water distribution coefficient, log D of the compound at pH 8 by shake flask method; format: physicochemical
[14] = Octanol-water distribution coefficient, log D of the compound at pH 11 by shake flask method; format: physicochemical
Jejunum [15] = assay: Apparent permeability coefficient in Sprague-Dawley rat jejunum at 100 uM; format: ADME, tissue-based
[16] = Octanol-water distribution coefficient, log D of the compound at pH 7 by shake flask method; format: physicochemical
Jejunum [17] = assay: Apparent permeability coefficient in Sprague-Dawley rat jejunum at 10 uM; format: ADME, tissue-based

## O=C(c1ccccc1)c1ccn(-c2ccc(/C=N/O)c([N+](=O)[O-])c2)c1
[1]
  inhibition: 60.5%

## O=C(c1ccccc1)c1ccn(-c2ccc(/C=N/O)c(O)c2)c1
[1]
  inhibition: 33.7%

## O=C(c1cccn1-c1ccc(O)c(F)c1)C(F)(F)F
[2]
  IC50: > 100 µM
[3]
  IC50: 73.8 µM
Rattus norvegicus
  Ratio IC50: > 1.36

## CC(C)NCC(O)COc1cccc2ccccc12 (configuration not stated) [PROPRANOLOL]
Jejunum [4]
  Papp: 11.1 ucm/s

## O=C(c1ccccc1)c1ccn(-c2ccc(O)cc2)c1
[2]
  IC50: > 100 µM
[3]
  IC50: 55.4 µM
Rattus norvegicus
  Ratio IC50: > 1.8

## O=C(c1ccccc1)c1ccn(-c2cccc(/C=N/O)c2O)c1
[1]
  inhibition: 23.5%

## O=C(c1ccc(OC(F)(F)F)cc1)c1ccn(-c2ccc(O)c(F)c2)c1
[2]
  IC50: > 100 µM
[3]
  IC50: 41.7 µM
Rattus norvegicus
  Ratio IC50: > 2.4

## O=C(c1ccccc1)c1ccn(-c2ccc(O)c(F)c2)c1
[2]
  IC50: 38.2 µM
[3]
  IC50: 10.1 µM
Rattus norvegicus
  Ratio IC50: 3.79

## O=C(c1ccccc1)c1cc(C(=O)C(F)(F)F)n(-c2ccc(O)c(F)c2)c1
[5]
  logD: 3.86
[6]
  logD: -0.38
[7]
  logD: 3.41
[2]
  IC50: 20.4 µM
[8]
  logD: 2.48
[3]
  IC50: 1.04 µM
[9]
  Activity: 586.08 nmol/g
[10]
  Activity: 462.49 nmol/g
[11]
  logD: 3.3
[12]
  logD: 3.5
Rattus norvegicus
  Ratio IC50: 19.6
[13]
  logD: 3.6
[14]
  logD: 0.66

## O=C(c1ccccc1)c1ccn(-c2cccc(O)c2)c1
[1]
  inhibition: 21.5%

## COc1ccc(C(=O)c2cccn2-c2ccc(O)c(F)c2)cc1
[1]
  inhibition: 43.7%

## COc1cccc(C(=O)c2ccn(-c3ccc(O)c(F)c3)c2)c1
[2]
  IC50: 28.7 µM
[3]
  IC50: 6.75 µM
Rattus norvegicus
  Ratio IC50: 4.25

## O=C(c1ccccc1)c1ccn(-c2ccc(F)c(F)c2)c1
[1]
  inhibition: 5.81%

## O=C(c1ccccc1)c1ccn(-c2ccccc2O)c1
[1]
  inhibition: 16.1%

## O=C(c1ccccc1)c1cc(C(=O)C(F)F)n(-c2ccc(O)c(F)c2)c1
Jejunum [15]
  Papp: 6.4 ucm/s
[5]
  logD: 3.1
[7]
  logD: 2.62
[2]
  IC50: 12.1 µM
[8]
  logD: 1.72
[3]
  IC50: 0.443 µM
[9]
  Activity: 487.07 nmol/g
[10]
  Activity: 396.89 nmol/g
[16]
  logD: 3.41
Rattus norvegicus
  Ratio IC50: 27.3
[13]
  logD: 2.98
[14]
  logD: 0.1

## O=C(c1ccn(-c2ccc(O)c(F)c2)c1)c1ccc(Br)cc1F
[2]
  IC50: 35.5 µM
[3]
  IC50: 24.8 µM
Rattus norvegicus
  Ratio IC50: 1.43

## O=C1OC2(c3ccc(O)cc3Oc3cc(O)ccc32)c2ccccc21 [FLUORESCEIN]
Jejunum [17]
  Papp: 5.2 ucm/s

## O=C(c1ccccc1)c1ccn(-c2ccc(O)c(/C=N/O)c2)c1
[1]
  inhibition: 35.3%

## O=C(c1ccc(-c2ccccc2)cc1)c1ccn(-c2ccc(O)c(F)c2)c1
[1]
  inhibition: 14.2%

## O=C(c1cccn1-c1ccc(O)c(F)c1)C(F)F
[2]
  IC50: > 100 µM
[3]
  IC50: 60.8 µM
Rattus norvegicus
  Ratio IC50: > 1.65

## COc1ccc(C(=O)c2ccn(-c3ccc(O)c(F)c3)c2)cc1
[2]
  IC50: 26.2 µM
[3]
  IC50: 9.23 µM
Rattus norvegicus
  Ratio IC50: 2.84

## O=C(c1ccccc1)c1ccn(-c2ccc([N+](=O)[O-])c(/C=N/O)c2)c1
[1]
  inhibition: 36.3%

## O=C(c1ccccc1)c1cccn1-c1ccc(O)c(F)c1
[1]
  inhibition: 37.2%
